The test system of experiment [1] is PMA-induced ear skin inflammation. Nature of the experiment: PMA-induced skin dermatitis of rat ears. The class given is in vivo. The note with it: topical. The protocol:
To verify the efficacy of a topical application of API-101.10 in a skin model of inflammation, 10 μl of 0.05% (in acetone) of the irritating agent PMA was applied on ears of 5 weeks old CD-1 male […] (Charles River) to induce contact dermatitis. The right ear received the vehicle only and left ear received the peptide or IL-1Ra analog Kineret® (Amgen). Ten μl of a final concentration of 10^−5M peptide diluted in PEG was applied 45 minutes and 4 hours after the induction of the inflammation with PMA. The commercial analog of IL-1R antagonist (IL-Ra), Kineret® was applied as a positive control at a concentration of 50 μg/10 μl of PEG. The drug was applied with a pipet tip adapted for the viscosity of the solution. Eighteen hours after the peptide treatment animals were sacrificed and ears were cut, weighed and their […] was measured with a caliper. Ear tumefaction (%) was determined: […] where a=thickness of left treated ear and b=thickness of right control ear.

A further experiment deals with IL-1R/IL-1RacP. Briefly: IL-1β-induced cGMP production in brain tissues ex vivo. As for the experimental part:
For these newly derived peptides, ex vivo experiments were then conducted. Brain tissues were incubated with the peptides and IL-1β and cGMP was measured with a commercial kit (Amersham Bioscience, cGMP assay biotrack™ system). API-101.10 already inhibited 85% of IL-1β-induced cGMP production (10^−6M) and API-101.103 and 101.106 inhibited more than 90% of cGMP production. Thus, removal of the negative charge of the glutamate and removal of the threonine can improve the potency of the antagonist.

The next experiment deals with HEK293 cells. Nature of the experiment: Binding of I125-API-101.10 in HEK293 cells not containing IL-1R. The source says:
Thymocytes freshly isolated from rat thymus were resuspended at a concentration of 10^7 cell/ml in PBS (phosphate buffered saline) buffer pH 8.0 (reaction buffer) and washed three times with ice-cold reaction buffer. The reaction mixture for each sample contained: 10^6 cells and 10^7 cpm of 125API-101.10. One sample also contained […] of cold API-101.10 peptide. In the negative control HEK-293 cells containing a negligible amount of IL-1R were used. Each sample volume was then raised to 250 μl with reaction buffer. Samples were incubated at room temperature and/or 37° for 45 minutes to allow peptide binding. The non-permeable cross-linker BS3 (Bis(sulfosuccinimidyl)suberate) was then added to a final concentration of 2.5 mM and samples were incubated at 4° C. for 30 minutes to minimize active internalization of BS3 (11.4 Å) (Pierce) (Partis, J. Prot. Chem. 293:263-277, 1983; Cox et al., J. Immunol. 145:1719-1726, 1990; and Knoller et al., J. Biol. Chem. 266:2795-2804, 1991). The reaction was quenched with 20 mM TRIS pH 7.5 for 15 minutes at room temperature. Cells were centrifuged at 4000 rpm for 10 minutes, lysed for 30 minutes on ice with 150 μl of RIPA buffer (50 mM Tris HCl pH7.4; 150 mM NaCl; 1 mM EDTA; 2 mM Na3VO4; 1 mM NaF; 1% NP-40; 0.25% Nadeoxycholate). […] Radioactivity was determined is every cell lysate with a Packard CobraII autogamma counter.

Where a SMILES comes first, the peptide text is derived from it. [ ]: non-standard residue; d: D form.

For `CC(C)C[C@@H](NC(=O)[C@@H](CCC(=O)O)NC(=O)[C@H](NC(=O)[C@H](NC(=O)[C@@H](Cc1ccc(O)cc1)NC(=O)[C@H](N)CCCNC(=N)N)[C@H](C)O)C(C)C)C(=O)N[C@H](C)C(N)=O` [API-101.10, RYTVELA] (H-[dR][dY][dT][dV][dE][dL][dA]-NH2; N-terminus and C-terminus assumed), the “ear weight compared with PMA-induced inflamed ear” value in experiment [1] (10^−5M in PEG) is “reduction in weight”. The “prevention of ear tumefaction” value in experiment [1] (10 μl of 10^−5M in PEG, 45 min and 4 h after PMA) is listed as 50%. For the same molecule, in the experiment with IL-1R/IL-1RacP (brain tissues, 10^−6M), the “inhibition of IL-1β-induced cGMP production” value is 85%. In addition, in the experiment with IL-1R/IL-1RacP (data not shown), the “activity compared with Kineret” value was “superior”. In the experiment with HEK293 cells, the “binding in cells not containing IL-1R” value is on record as “does not occur”.

For the origin of these results see patent US20110144014A1, “CYTOKINE RECEPTOR MODULATORS AND USES THEREOF” (CENTRE HOSPITALIER UNIVERSITAIRE SAINTE-JUSTINE, priority 2005, published 2011).
